Reference: patent publication US4564609A, “4-Substituted-2-azetidinone compound, process of producing the compounds, and medicaments containing the compounds” (Yamanouchi Pharmaceutical Co., Ltd., priority 1983, dated 1986)
Like-named read-outs stand apart in the source and are kept apart here.

Key:
[1] = tested on: male mice; assay: Pentobarbital-induced hypothermia (Experiment 1); type: in vivo; settings: i.v. 10 min after pentobarbital 55 mg/kg i.p.; rectal temperature 30 min after test compound; dose reducing hypothermia of control group by 1.5° C.
Description: Pentobarbital-induced hypothermia:
Nine male mice weighing 18 to 22 g were used for each dosage of the test compounds. Mice were given i.v. various doses of TRH or tested compounds 10 min. after pentobarbital (55 mg/kg i.p.). Rectal temperature was measured before pentobarbital dosing and immediately before and 30 min. after the test compounds. Effects of test compounds were evaluated as ED1.5° C., the dose required to reduce by 1.5° C. pentobarbital-hypothermia of control group of mice which received only pentobarbital and saline.

[2] = tested on: male mice; settings: mouse, in vivo, iv
[3] = tested on: male mice; assay: Disturbance of consciousness induced by concussive head injury (Experiment 2); type: in vivo; settings: i.v. 10 min before concussive head injury, dose shortening spontaneous movement time of control group by 50%; for ED50: Mus musculus, iv, read-out: Onset time of spontaneous movement ED50%
Description: Disturbance of consciousness induced by concussive head injury:
Nine male mice weighing 18 to 22 g were used for each dosage of the test compounds. An acrylate weight containing lead (20.5 g, 19 mm in both diameter and thickness) was dropped to the head of mice from a 18 cm height. Mice were induced loss of consciousness and they remained motionless for some period. The time from the shock up to the onset of spontaneous movement was recorded as the spontaneous movement time. Test compounds were administered intravenously 10 min. before adding concussive head injury and effects of test compounds were evaluated as ED50%, the dose required to shorten by 50% the spontaneous movement time of control group.

[4] = tested on: male mice; assay: Acute toxicity (Experiment 3); settings: intravenous

Compound | Reversal effect against pentobarbital-hypothermia ED1.5° C. [1] | LD50 (i.v.) [2] | ED50 [3] | LD50 (i.v.) [4] | Onset time of spontaneous movement ED50% [3]
Cn1cnc(CC(NC(=O)C2CC(=O)N2)C(=O)N2CCCC2C(N)=O)c1 [Example 19, N^α -[(s)-2-azetidinone-4-carbonyl]-N^.tau. -methyl-L-histidyl-L-prolinamide] | 0.004 mg/kg |  |  |  | 
NC(=O)[C@@H]1CCCN1C(=O)[C@H](Cc1c[nH]cn1)NC(=O)[C@@H]1CC(=O)N1 [Example 1, N^α -[(S)-2-azetidinone-4-carbonyl]-L-histidyl-L-prolinamide] | 0.01 mg/kg | higher than 1493 mg/kg | 0.1 mg/kg |  | 
NC(=O)[C@@H]1CSCN1C(=O)[C@H](Cc1c[nH]cn1)NC(=O)[C@@H]1CC(=O)N1 [Example 6, 3-[N^α -[(S)-2-azetidinone-4-carbonyl]-L-histidyl]-L-thiazolidine-4-carboxamide] | 0.05 mg/kg |  |  |  | 
O=C1C[C@@H](C(=O)N[C@@H](Cc2c[nH]cn2)C(=O)N2CCC[C@H]2C(=O)NCCO)N1 [Example 4, N^α -[(S)-2-azetidinone-4-carbonyl]-L-histidyl-N-(2-hydroxyethyl)-L-prolinamide] |  |  | 0.35 mg/kg |  | 
NC(=O)[C@@H]1CCCN1C(=O)[C@H](Cc1cnc[nH]1)NC(=O)[C@@H]1CCC(=O)N1 [TRH, L-pyroglutamyl-L-histidyl-L-prolinamide, reference compound] | 0.1 mg/kg |  |  | 751 mg/kg | 2.5 mg/kg
